This note sets out measurements from patent publication US20220348595A1, “COMPOUNDS AND METHODS FOR THE TARGETED DEGRADATION OF ESTROGEN RECEPTORS” (Endotarget Inc., priority 2021, published 2022).

Format in all cases: cell-based
One experiment addresses T1, ER (Homo sapiens, UniProt P03372).
T1 construct: endogenous in cells; host or cells: T47d-kb-Luc (T47D stably transfected with a luciferase reporter gene only)
T1 sequence (P03372 1-595): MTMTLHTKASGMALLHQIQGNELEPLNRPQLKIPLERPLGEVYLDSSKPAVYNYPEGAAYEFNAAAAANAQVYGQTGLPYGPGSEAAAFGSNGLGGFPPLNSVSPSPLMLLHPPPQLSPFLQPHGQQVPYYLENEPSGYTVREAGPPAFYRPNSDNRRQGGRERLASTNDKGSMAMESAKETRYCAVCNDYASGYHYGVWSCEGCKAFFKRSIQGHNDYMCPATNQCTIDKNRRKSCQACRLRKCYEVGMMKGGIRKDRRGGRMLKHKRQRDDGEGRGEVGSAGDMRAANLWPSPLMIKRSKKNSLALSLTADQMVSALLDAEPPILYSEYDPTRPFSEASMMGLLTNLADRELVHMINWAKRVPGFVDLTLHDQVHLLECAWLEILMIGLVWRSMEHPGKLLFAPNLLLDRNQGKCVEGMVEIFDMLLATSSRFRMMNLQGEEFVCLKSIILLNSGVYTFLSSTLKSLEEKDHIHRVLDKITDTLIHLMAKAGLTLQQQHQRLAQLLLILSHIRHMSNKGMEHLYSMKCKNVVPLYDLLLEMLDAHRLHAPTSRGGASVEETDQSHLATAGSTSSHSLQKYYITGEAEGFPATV
In words: ER antagonism (T47D ERE luciferase), T47d-kb-Luc cells. Conditions: read-out: IC50 (ER antagonistm). The procedure, abridged:
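Five sample concentrations, each in quadruplicate and repeated in at least three experiments, were tested for blocking of estradiol activity. Values were expressed relative to the estradiol control. The cell system was the T47d-kb-Luc stable breast cancer line.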

For experiment [1], the system named is MCF-7 breast cancer cells. In words: MCF-7 proliferation / cell viability assay. The following applies: MCF-7 proliferation with 0.1 nM 17-beta estradiol, read-out: IC50 (anti-proliferation). The method in brief: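 Survival ratio, with vehicle (DMSO) as 100%, was derived from Coulter-counted viable cell numbers. Cells were grown in 5% FBS DMEM and dosed for 5 days across six concentrations between 10^−10 M and 10^−5 M.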

The next experiment deals with T2, ERα (Homo sapiens, UniProt P03372).
T2 construct: endogenous in cells; host or cells: MCF-7
T2 sequence (P03372 1-595): T1 sequence (P03372 1-595)
In words: ER degradation in MCF-7 cells (Western blot). Conditions: for DC50: ER degradation, 24 hours. The procedure, abridged:
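ERα levels assessed by Western blot (50 μg lysate protein, infrared scanner) after 24-hour exposure of MCF-7 cells to varied compound concentrations. Values reported as DC50, the concentration halving ER expression, and Dmax, the maximal ER reduction achieved across tested concentrations.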

Where [2] appears, read: MCF7, Maximal ER degradation, read-out: Dmax.

Molecules are shown by their SMILES. Like-named read-outs stand apart in the source and are kept apart here.

A word on the DC50: it is the concentration at which degradation of the target reaches its halfway point. Low values mean a more potent degrader, high ones a less potent degrader. In general, Dmax refers to the greatest extent of degradation seen. `CC/C(=C(/c1ccc(O)cc1)c1ccc(OCCN2CCN(C(=O)N3CCN(c4ccc5c(c4)CN([C@H]4CCC(=O)NC4=O)C5=O)CC3)CC2)cc1)c1ccccc1` [Compound 81, (S,E)-3-(5-(4-(4-(2-(4-(1-(4-hydroxyphenyl)-2-phenylbut-1-en-1-yl)phenoxy)ethyl)piperazine-1-carbonyl)piperazin-1-yl)-1-oxoisoindolin-2-yl)piperidine-2,6-dione]: the IC50 at ER was under 10 nM; in experiment [1] (Homo sapiens, MCF7), under 10 nM. This compound came in with a half-maximal degradation concentration (DC50) on ERα of under 10 nM. Further, the Dmax at ERα (setting [2]) is over 90%.
For the compound `CC/C(=C(/c1ccc(O)cc1)c1ccc(OCCN2CCN(C(=O)N3CCN(c4ccc5c(c4)CN([C@@H]4CCC(=O)NC4=O)C5=O)CC3)CC2)cc1)c1ccccc1` [Compound 82], the IC50 at ER is under 10 nM; in experiment [1] (Homo sapiens, MCF7), under 10 nM. The compound also gave a DC50 at ERα of under 10 nM. The Dmax at ERα (setting [2]) is over 90%.
Consider `CC/C(=C(/c1ccc(OCCN2CCN(C(=O)N3CCN(c4ccc5c(c4)CN(C4CCC(=O)NC4=O)C5=O)CC3)CC2)cc1)c1ccc(B(O)O)cc1)c1ccccc1` (centres unmarked) [Compound 83, (Z)-(4-(1-(4-(2-(4-(4-(2-(2,6-dioxopiperidin-3-yl)-1-oxoisoindolin-5-yl)piperazine-1-carbonyl)piperazin-1-yl)ethoxy)phenyl)-2-phenylbut-1-en-1-yl)phenyl)boronic acid], for which the IC50 on ER is under 10 nM; in experiment [1] (Homo sapiens, MCF7) it was under 10 nM. The same compound gave a DC50 at ERα of under 10 nM. In addition, the Dmax at ERα (setting [2]) was over 90%.
As for `CC/C(=C(/c1ccc(OCCN2CCN(C(=O)N3CCN(c4ccc5c(c4)CN([C@H]4CCC(=O)NC4=O)C5=O)CC3)CC2)cc1)c1ccc(B(O)O)cc1)c1ccccc1` [Compound 84], the IC50 is under 10 nM on ER and under 10 nM in experiment [1] (Homo sapiens, MCF7). The compound further gave a DC50 on ERα of under 10 nM. The greatest degradation seen (Dmax) on ERα (setting [2]) was over 90%.
Turning to `CC/C(=C(/c1ccc(OCCN2CCN(C(=O)N3CCN(c4ccc5c(c4)CN([C@@H]4CCC(=O)NC4=O)C5=O)CC3)CC2)cc1)c1ccc(B(O)O)cc1)c1ccccc1` [Compound 85, (R,Z)-(4-(1-(4-(2-(4-(4-(2-(2,6-dioxopiperidin-3-yl)-1-oxoisoindolin-5-yl)piperazine-1-carbonyl)piperazin-1-yl)ethoxy)phenyl)-2-phenylbut-1-en-1-yl)phenyl)boronic acid], the IC50 on ER was under 10 nM; in experiment [1] (Homo sapiens, MCF7), under 10 nM. Also, at ERα, the DC50 was under 10 nM. Besides, at ERα (setting [2]), the Dmax was over 90%.
As for `CC/C(=C(\c1ccc(OCCN2CCN(C(=O)N3CCN(c4ccc5c(c4)CN(C4CCC(=O)NC4=O)C5=O)CC3)CC2)cc1)c1ccc(B(O)O)cc1)c1ccccc1` (centres unmarked) [Compound 86, (E)-(4-(1-(4-(2-(4-(4-(2-(2,6-dioxopiperidin-3-yl)-1-oxoisoindolin-5-yl)piperazine-1-carbonyl)piperazin-1-yl)ethoxy)phenyl)-2-phenylbut-1-en-1-yl)phenyl)boronic acid], the IC50 is under 10 nM on ER and under 10 nM in experiment [1] (Homo sapiens, MCF7). Besides, the half-maximal degradation concentration (DC50) at ERα was under 10 nM. Besides, the Dmax at ERα (setting [2]) is over 90%.
`CC/C(=C(\c1ccc(OCCN2CCN(C(=O)N3CCN(c4ccc5c(c4)CN([C@H]4CCC(=O)NC4=O)C5=O)CC3)CC2)cc1)c1ccc(B(O)O)cc1)c1ccccc1` [Compound 87, (S,E)-(4-(1-(4-(2-(4-(4-(2-(2,6-dioxopiperidin-3-yl)-1-oxoisoindolin-5-yl)piperazine-1-carbonyl)piperazin-1-yl)ethoxy)phenyl)-2-phenylbut-1-en-1-yl)phenyl)boronic acid]: the IC50 at ER was under 10 nM; in experiment [1] (Homo sapiens, MCF7), under 10 nM. Further, the DC50 at ERα is under 10 nM. The Dmax at ERα (setting [2]) was over 90%.
Consider `CC/C(=C(\c1ccc(OCCN2CCN(C(=O)N3CCN(c4ccc5c(c4)CN([C@@H]4CCC(=O)NC4=O)C5=O)CC3)CC2)cc1)c1ccc(B(O)O)cc1)c1ccccc1` [Compound 88], for which the IC50 at ER was under 10 nM; in experiment [1] (Homo sapiens, MCF7) it was under 10 nM. Besides, on ERα, the DC50 is under 10 nM. At ERα (setting [2]), the Dmax is over 90%.
As to `CC/C(=C(\c1ccc(O)cc1)c1ccc(OCCN2CCN(C(=O)N3CCC(CN4CCN(c5ccc6c(c5)CN(C5CCC(=O)NC5=O)C6=O)CC4)CC3)CC2)cc1)c1ccccc1` (centres unmarked) [Compound 89], the IC50 (on ER; in experiment [1]) was under 10 nM throughout. This compound also registered a DC50 at ERα of under 10 nM. In addition, the greatest degradation seen (Dmax) entry on ERα (Maximal ER degradation) was “A (A -> 90%)”.
As for `CC/C(=C(/c1ccc(O)cc1)c1ccc(OCCN2CCN(C(=O)N3CCC(CN4CCN(c5ccc6c(c5)CN(C5CCC(=O)NC5=O)C6=O)CC4)CC3)CC2)cc1)c1ccccc1` (centres unmarked) [Compound 90, (E)-3-(5-(4-((1-(4-(2-(4-(1-(4-hydroxyphenyl)-2-phenylbut-1-en-1-yl)phenoxy)ethyl)piperazine-1-carbonyl)piperidin-4-yl)methyl)piperazin-1-yl)-1-oxoisoindolin-2-yl)piperidine-2,6-dione], the IC50 was under 10 nM on ER and under 10 nM in experiment [1] (Homo sapiens, MCF7). In addition, the 50% degradation concentration (DC50) on ERα is under 10 nM. Moreover, the Dmax on ERα (setting [2]) was over 90%.
Take `CC/C(=C(/c1ccc(OCCN2CCN(C(=O)N3CCC(CN4CCN(c5ccc6c(c5)CN(C5CCC(=O)NC5=O)C6=O)CC4)CC3)CC2)cc1)c1ccc(B(O)O)cc1)c1ccccc1` (centres unmarked) [Compound 91, (Z)-(4-(1-(4-(2-(4-(4-((4-(2-(2,6-dioxopiperidin-3-yl)-1-oxoisoindolin-5-yl)piperazin-1-yl)methyl)piperidine-1-carbonyl)piperazin-1-yl)ethoxy)phenyl)-2-phenylbut-1-en-1-yl)phenyl)boronic acid]: the IC50 at ER was under 10 nM; in experiment [1] (Homo sapiens, MCF7), under 10 nM. The compound also registered a DC50 at ERα of under 10 nM. On ERα (setting [2]), the Dmax is over 90%.
As to `CC/C(=C(\c1ccc(OCCN2CCN(C(=O)N3CCC(CN4CCN(c5ccc6c(c5)CN(C5CCC(=O)NC5=O)C6=O)CC4)CC3)CC2)cc1)c1ccc(B(O)O)cc1)c1ccccc1` (centres unmarked) [Compound 92, (E)-(4-(1-(4-(2-(4-(4-((4-(2-(2,6-dioxopiperidin-3-yl)-1-oxoisoindolin-5-yl)piperazin-1-yl)methyl)piperidine-1-carbonyl)piperazin-1-yl)ethoxy)phenyl)-2-phenylbut-1-en-1-yl)phenyl)boronic acid], the IC50 was under 10 nM at ER and under 10 nM in experiment [1] (Homo sapiens, MCF7). Besides, the 50% degradation concentration (DC50) at ERα was under 10 nM. Moreover, on ERα (setting [2]), the maximal degradation (Dmax) was over 90%.
Consider `CC/C(=C(\c1ccc(O)cc1)c1ccc(OCCN2CCN(C(=O)N3CCC(N4CCN(c5ccc6c(c5)CN(C5CCC(=O)NC5=O)C6=O)CC4)CC3)CC2)cc1)c1ccccc1` (centres unmarked) [Compound 93, (Z)-3-(5-(4-(1-(4-(2-(4-(1-(4-hydroxyphenyl)-2-phenylbut-1-en-1-yl)phenoxy)ethyl)piperazine-1-carbonyl)piperidin-4-yl)piperazin-1-yl)-1-oxoisoindolin-2-yl)piperidine-2,6-dione], for which the IC50 on ER was under 10 nM; in experiment [1] (Homo sapiens, MCF7), under 10 nM. The compound also registered a DC50 at ERα of 10 to 50 nM. Further, the greatest degradation seen (Dmax) on ERα (setting [2]) was over 90%.
With `CC/C(=C(/c1ccc(O)cc1)c1ccc(OCCN2CCN(C(=O)N3CCC(N4CCN(c5ccc6c(c5)CN(C5CCC(=O)NC5=O)C6=O)CC4)CC3)CC2)cc1)c1ccccc1` (centres unmarked) [Compound 94, (E)-3-(5-(4-(1-(4-(2-(4-(1-(4-hydroxyphenyl)-2-phenylbut-1-en-1-yl)phenoxy)ethyl)piperazine-1-carbonyl)piperidin-4-yl)piperazin-1-yl)-1-oxoisoindolin-2-yl)piperidine-2,6-dione], the IC50 at ER was under 10 nM; in experiment [1] (Homo sapiens, MCF7), under 10 nM. This compound also yielded a DC50 at ERα of 10 to 50 nM. Moreover, the Dmax at ERα (setting [2]) was over 90%.
